In US20090325156A1, “MATERIALS AND METHODS FOR ABCB1 POLYMORPHIC VARIANT SCREENING, DIAGNOSIS, AND TREATMENT” (Government of the United States of America, as Represented …, priority 2005, published 2009):
Read-outs that look alike come from different tables or passages of the source.

Assays:
[1] = test system: patients with T-cell lymphoma; test: Baseline corrected QTc interval (ΔQTc) on ECG after FK228 (romidepsin) treatment, by ABCB1 genotype; type: in vivo, human
Procedure: Complete blood cell counts with differential are obtained immediately prior to FK228 administration and on days 2, 9, and 16 to evaluate FK228-related myelosuppression. Multiple surface electrocardiograms (ECGs) are obtained immediately before FK228 administration, and at 4 hours after the start of FK228 administration, to evaluate the ability of FK228 to delay cardiac repolarization. This effect is manifested on the ECG as prolongation of the QT interval. The QT interval is transformed into the heart-rate independent corrected value known as the QTc interval. Prolongation of the QTc interval is the electrocardiographic finding associated with increased susceptibility to the development of cardiac arrythmias, including ventricular arrhythmias such as Torsade de Pointes. Because measurement of the baseline value is a factor that critically influences the observed variability in the mean QTc interval, values are computed as the mean of multiple ECGs to enhance the precision of the measurement. This computation is performed by collecting drug-free ECGs on three or more different days. The on-study time point for obtaining an ECG are selected to coincide with the maximum plasma concentration of FK228, as recommended in the preliminary FDA concept paper: The Clinical Evaluation Of Qt/Qtc Interval Prolongation And Proarrhythmic Potential For Non-Antiarrhythmic Drugs (Nov. 15, 2002) available at: http://www.fda.gov/ohrms/dockets/ac/03/briefing/pubs %5Cprelim.pdf.
Relationships between various exposure measures, for example, plasma AUC, and hematological and cardiac toxicity are evaluated by sigmoid maximum-effect models. […] Hematological pharmacodynamics are evaluated by analysis of the absolute nadir values of platelet counts or the relative thrombocytopenia, that is, the percent decrease in platelet count. Data are fitted to a sigmoid maximum-effect model based on the modified Hill equation, as follows: E=E0+Emax×[(KP^γ)/(KP^γ+KP50^γ)]. In this equation, E0 is the minimum reduction possible, Emax is the maximum response (fixed to a value of 100), KP is the pharmacokinetic parameter of interest, KP50 the value of the pharmacokinetic parameter predicted to result in half of the maximum response, and γ is the Hill constant, which describes the sigmoidicity of the curve. Models are evaluated for goodness of fit by minimization of sums of the squared residuals and by reduction of the estimated coefficient of variation for fitted parameters. Significance of the relationships are assessed by construction of contingency tables with subsequent chi-squared analysis.
All data are reported as median values with range, unless specified otherwise. Interindividual pharmacokinetic variability is calculated as the coefficient of variation, and expressed as a percentage. Genotype-frequency analysis of Hardy-Weinberg equilibrium is carried out using Clump version 1.9. The linkage between each pair of SNPs is determined in terms of the classical statistic D′. The absolute value for D′ (|D′|) of 1 denotes complete linkage disequilibrium, while a value of 0 denotes complete linkage equilibrium. The effects of the variant genotypes on ΔQTc, relative thrombocytopenia, dose-normalized AUC, apparent oral clearance, half-life, volume of distribution at steady-state are evaluated statistically with the nonparametric Kruskal-Wallis test. A post-hoc distribution-free multiple comparison procedure is performed using the Dunn test with Bonferroni correction to test pairs of median observations. All statistical analyses are performed using the NCSS software program (version 2001; NCSS, Kaysville, Utah). The a priori level of significance is set at 0.05.

[2] = clinical; conditions: human, plasma, intravenous; for Vd: Vss, volume of distribution at steady-state
[3] = test system: patients with T-cell lymphoma; test: Hematological toxicity: percentage decrease in platelet count versus FK228 AUC (sigmoid maximum effect model); type: in vivo, human; conditions: P<0.001, FIG. 1
Procedure: Complete blood cell counts with differential are obtained immediately prior to FK228 administration and on days 2, 9, and 16 to evaluate FK228-related myelosuppression. Multiple surface electrocardiograms (ECGs) are obtained immediately before FK228 administration, and at 4 hours after the start of FK228 administration, to evaluate the ability of FK228 to delay cardiac repolarization. This effect is manifested on the ECG as prolongation of the QT interval. The QT interval is transformed into the heart-rate independent corrected value known as the QTc interval. […]
Relationships between various exposure measures, for example, plasma AUC, and hematological and cardiac toxicity are evaluated by sigmoid maximum-effect models. […] Hematological pharmacodynamics are evaluated by analysis of the absolute nadir values of platelet counts or the relative thrombocytopenia, that is, the percent decrease in platelet count. […] Models are evaluated for goodness of fit by minimization of sums of the squared residuals and by reduction of the estimated coefficient of variation for fitted parameters. Significance of the relationships are assessed by construction of contingency tables with subsequent chi-squared analysis.

- interindividual variability in drug clearance, percent coefficient of variation (Example 1, 42 patients): approximately 72%
- interindividual variability in drug clearance, percent coefficient of variation (Example 2): approximately 72%
- clearance ([2]; Clearance, All (N = 74), median): 238 mL/min
- clearance ([2]; Clearance, Group 1 (N = 45), median): 252 mL/min
- clearance ([2]; Clearance, Group 2 (N = 29), median): 232 mL/min
- clearance ([2]; FK228 clearance, Example 1, all 42 patients combined, 4-hour infusion 14 or 18 mg/m^2, mean ± standard deviation): 292 mL/min
- half-life ([2]; T1/2, half-life of the terminal phase, All (N = 74), median): 6 h
- half-life ([2]; T1/2, half-life of the terminal phase, Group 1 (N = 45), median): 6.8 h
- half-life ([2]; T1/2, half-life of the terminal phase, Group 2 (N = 29), median): 3.8 h
- Vd ([2]; All (N = 74), median): 93.6 L
- Vd ([2]; Group 1 (N = 45), median): 129 L
- Vd ([2]; Group 2 (N = 29), median): 64.9 L
- half-life ([2]; terminal half-life, Example 1, all 42 patients combined, 4-hour infusion 14 or 18 mg/m^2, mean ± standard deviation): 7.23 ± 3 h
SMILES: C/C=C1\NC(=O)[C@H]2CSSCC/C=C/[C@H](CC(=O)N[C@H](C(C)C)C(=O)N2)OC(=O)[C@H](C(C)C)NC1=O [FK228, (E)-(1S,4S,10S,21R)-7-[(Z)-ethylidene]-4,21-diisopropyl-2-oxa-12,13-dithia-5,8,20,23-tetraazabicyclo [8,7,6]-tricos-16-ene-3,6,19,22-pentanone]
- ΔQTc at four hours ([1]; Example 1, ABCB1 2677GA genotype, n=1): 17.8 ms
- ΔQTc at four hours, median ([1]; Example 1, ABCB1 2677GG genotype, n=10): 18.3 ms
- ΔQTc at four hours, median ([1]; Example 1, ABCB1 2677GT genotype, n=14): 16.5 ms
- ΔQTc at four hours, median ([1]; Example 1, ABCB1 2677T/T genotype, n=4): -5 ms
- ΔQTc at four hours, median ([1]; Example 1, carriers of the heterozygote diplotype (2677/3435), n=7): 11.3 ms
- ΔQTc at four hours, median ([1]; Example 1, carriers of the homozygote diplotype (2677/3435), n=19): 18.5 ms
- ΔQTc at four hours, median ([1]; Example 1, homozygous for the ABCB1 2677TT/3435TT diplotype, n=3): -5.0 ms
- ΔQTc at 4 hours, median ([1]; group 1, 0 reference alleles at both ABCB1 2677G>T/A and 3435C>T loci, N=4): -1 ms
- ΔQTc at 4 hours, median ([1]; group 1, no reference alleles at the ABCB1 2677G>T/A locus, N=6): -2.0 ms
- ΔQTc at 4 hours, median ([1]; group 1, one or more reference alleles at the ABCB1 2677G>T/A locus, N=32): 18.2 ms
- ΔQTc at 4 hours, median ([1]; group 1, single reference allele at either ABCB1 2677G>T/A or 3435C>T locus, N=6): 9.7 ms
- ΔQTc at 4 hours, median ([1]; group 1, two or more reference allele copy numbers at ABCB1 2677G>T/A and 3435C>T loci, N=28): 18.5 ms
- ΔQTc at 4 hours, median ([1]; group 2, 0 or 1 reference alleles at ABCB1 2677G>T/A, N=14): 4 ms
- ΔQTc at 4 hours, median ([1]; group 2, more than 1 reference allele at ABCB1 2677G>T/A, N=4): 24.5 ms
- association of AUC of FK228 with percentage decrease in platelet count [3]: weakly associated
